Assay results: publication PMC12567268 (Pharmaceuticals, 2025)
Where two headings read alike, the source gives them in different places.

Legend:
[1] = healthy subjects, co-administration of RTV 400 mg twice daily; cited from earlier work
[2] = cited from earlier work
CYP3A4 = conditions: in vitro study; cited from earlier work
[3] = cited from earlier work; remark: listed apart in the source
[4] = rats; cited from earlier work
[5] = healthy human subjects, cited from earlier work
[6] = humans; cited from earlier work
[7] = In vivo PK DDI study of TOF with or without RTV in rats (plasma LC-MS/MS, NCA); design: species or system Sprague–Dawley rats; conditions: for concentration at 12 h: oral, rat plasma, 12 h after TOF 10 mg/kg oral
Method: The rats were randomly divided into three groups (eight rats per group) after 1 week of acclimatization. Each rat was pretreated with RTV by oral gavage at different doses for four consecutive days (from Day 1 to Day 4) to ensure steady-state CYP3A inhibition, based on studies indicating rapid onset of inhibition. Group 1 (control group) received the vehicle (normal saline). Groups 2 and 3 served as test groups and received 10 and 20 mg/kg RTV once daily (QD), respectively. […] The collected samples were centrifuged at 10,000 rpm for 10 min at 4 °C to separate the plasma and stored at −80 °C until analysis.
Plasma samples were prepared by protein precipitation with acetonitrile containing domperidone as an internal standard (100 ng/mL). After vortex mixing and centrifugation at 15,000× g for 10 min at 4 °C, the supernatant was analyzed by LC-MS/MS with an injection volume of 5 μL. Chromatographic separation was achieved on a C18 reversed-phase column with a mobile phase of 0.1% formic acid in water and acetonitrile at a flow rate of 0.4 mL/min. Mass spectrometry was performed in positive ion mode with an electrospray ionization probe. […] Detailed instrument settings, sample preparation, calibration, and validation data are provided in Supplementary Material (Tables S1 and S2; Figure S1).

[8] = Sprague-Dawley, rat, plasma, po, 10 mg/kg, rats, TOF 10 mg/kg oral, Control (TOF only, vehicle), median [interquartile range]
[9] = rats, TOF 10 mg/kg oral, Control (TOF only, vehicle), median [interquartile range]
[10] = rats, TOF 10 mg/kg oral, RTV 10 mg/kg, median [interquartile range]

C[C@@H](c1ncncc1F)[C@](O)(Cn1cncn1)c1ccc(F)cc1F [voriconazole]
Decrease in steady-state AUC [1]: 82%

C=CC[C@@H]1/C=C(\C)C[C@H](C)C[C@H](OC)[C@H]2O[C@@](O)(C(=O)C(=O)N3CCCC[C@H]3C(=O)O[C@H](/C(C)=C/[C@@H]3CC[C@@H](O)[C@H](OC)C3)[C@H](C)[C@@H](O)CC1=O)[C@H](C)C[C@@H]2OC [Tacrolimus]
Change in exposure on co-administration with RTV ([2]; patients undergoing long-term tacrolimus treatment): increase to toxic levels within 3 days

CC(=O)N1CCN(c2ccc(OCC3COC(Cn4ccnc4)(c4ccc(Cl)cc4Cl)O3)cc2)CC1 (stereo not shown) [ketoconazole]
Inhibition of the overall metabolism of TOF (CYP3A4): over 70%

C[C@@H]1CCN(C(=O)CC#N)C[C@@H]1N(C)c1ncnc2[nH]ccc12 [TOF, Tofacitinib]
Increase in AUC of TOF ([3]; rats pretreated with fluconazole (inhibitor of CYP2C11)): 39% | Increase in AUC of TOF ([3]; rats pretreated with ketoconazole (inhibitor of CYP3A1/2)): 46% | Increase in AUC of TOF ([3]; rats, with voriconazole (inhibits CYP3A1/2 and CYP2C11)): 166% | Bioavailability (BA) [4]: 29.1% | Increase in AUC of TOF ([5]; co-administration of fluconazole): 79% | Increase in AUC of TOF ([5]; co-administration of ketoconazole): 103% | Hepatic clearance as share of total clearance [6]: 70% | Renal clearance as share of total clearance [6]: 30% | concentration at 12 h ([7]; Sprague-Dawley, rat, plasma, RTV 10 mg/kg, read-out: Lowest plasma concentration at 12 h): 1.5 ng/mL | concentration at 12 h ([7]; Sprague-Dawley, rat, plasma, RTV 10 mg/kg, read-out: Mean plasma concentration at 12 h): 21.9 ng/mL | concentration at 12 h ([7]; Sprague-Dawley, rat, plasma, RTV 20 mg/kg, read-out: Lowest plasma concentration at 12 h): 2.6 ng/mL | concentration at 12 h ([7]; Sprague-Dawley, rat, plasma, RTV 20 mg/kg, read-out: Mean plasma concentration at 12 h): 12.1 ng/mL | AUC(0-inf) [7, 8]: 2720 ng·h/mL | half-life [7, 8]: 72.6 min | half-life ([7]; Sprague-Dawley, rat, plasma, po, 10 mg/kg, rats, TOF 10 mg/kg oral, RTV 10 mg/kg, median [interquartile range]): 60 min | Cmax ([7]; Sprague-Dawley, rat, plasma, po, 10 mg/kg, rats, TOF 10 mg/kg oral, RTV 10 mg/kg, median [interquartile range], read-out: Cmax): 2250 ng/mL | AUC(0-inf) ([7]; Sprague-Dawley, rat, plasma, po, 10 mg/kg, rats, TOF 10 mg/kg oral, RTV 20 mg/kg pretreatment and coadministration, median [interquartile range]): 16000 ng·h/mL | half-life ([7]; Sprague-Dawley, rat, plasma, po, 10 mg/kg, rats, TOF 10 mg/kg oral, RTV 20 mg/kg, median [interquartile range]): 52.2 min | Cmax ([7]; Sprague-Dawley, rat, plasma, po, 10 mg/kg, rats, TOF 10 mg/kg oral, RTV 20 mg/kg, median [interquartile range], read-out: Cmax): 3900 ng/mL | Tmax ([7]; Sprague-Dawley, rat, plasma, po, 10 mg/kg, read-out: Tmax): 1 h | CL [7, 9]: 3.57 [2.65–4.49] L/h/kg | Cmax [7, 9]: 1362 [1263–1410] ng/mL | Tmax [7, 9]: 0.25 [0.25–0.5] h | CL [7, 10]: 1.65 [1.19–2.11] L/h/kg | Tmax [7, 10]: 0.5 [0.44–1.0] h | CL ([7]; rats, TOF 10 mg/kg oral, RTV 20 mg/kg, median [interquartile range]): 0.66 [0.60- 0.73] L/h/kg | Change of half-life (t1/2) with RTV ([7]; rats, TOF 10 mg/kg oral, RTV 10 and 20 mg/kg vs Control, p = 0.08): remained unchanged

COc1ccc2c3c1O[C@H]1C(=O)CC[C@@]4(O)[C@@H](C2)N(C)CC[C@]314 [oxycodone]
Change in exposure in the presence of RTV ([2]; in the presence of RTV): tripled
